For one compound, IC50 results are on record in BindingDB's records for doi:10.1016/j.bmcl.2015.04.102 (Arena Pharmaceuticals, 2015).

The data set can be described thus: Displacement of [3H]-Astemizole from human ERG. On the technique in general: Displacement assays read how much labelled ligand stays bound in the presence of the test substance.

Structures are written as SMILES.

As a reminder, the IC50 is the concentration that inhibits the measured activity by half. Read a low IC50 as greater potency in that assay. In turn, `C[C@@H](OC(=O)N1CCC(O[C@H]2CC[C@H](Oc3cnc(S(C)(=O)=O)cn3)CC2)CC1)C(F)(F)F` gave an IC50 above 1000 µM.
